Patent US6521594B1, “Method and composition for treating thrombosis” (La Jolla Cancer Research Foundation, priority 1990, dated 2003)
Read-outs that look alike come from different tables or passages of the source.

Legend:
platelets [1] = assay: Ex vivo platelet aggregation in the canine coronary thrombosis study; set-up: species or system dog
Method: For all ex vivo studies (see FIG. 3), control aggregation values were standardized to the percentages of light transmission observed in PRP and PPP samples (0% and 100%, respectively).
(§1) Animals were randomly assigned to two treatment groups: vehicle control (i.e., normal saline) or RGD peptides at various concentrations. Peptides were administered intra-atrially in both bolus and continuous injections. Each bolus injection consisted of 0.5 to 10 mg/kg and was administered 15 minutes before application of the current. A continuous infusion of the same peptide was then started immediately after completion of this initial injection. Animals received a 25 μg/kg/min to 200 μg/kg/min infusion. The anti-thrombotic effects of the peptides were monitored until 30 minutes after the occurrence of a persistent, occlusive thrombus or five hours after the initiation of electrical stimulation (whichever resulted first). If an occlusive thrombus had not developed within four hours after the initiation of current, the peptide infusion was stopped.
Platelet counts and ex vivo aggregation studies were performed one hour before and 1, 3, and 5 hours after application of anodal direct current.
Platelet aggregation was also determined ex vivo at one, three, and five hours after current application. For these studies, arachidonic acid, or collagen was again used to stimulate the platelets.

platelets [2] = target: T1, platelets (Homo sapiens, UniProt P05106+P08514); assay: Human platelet aggregation in PRP (modified assay, Table II); type: cell-based; conditions: citrate, collagen, U46619 or ADP
T1 sequence (P08514 32-1039): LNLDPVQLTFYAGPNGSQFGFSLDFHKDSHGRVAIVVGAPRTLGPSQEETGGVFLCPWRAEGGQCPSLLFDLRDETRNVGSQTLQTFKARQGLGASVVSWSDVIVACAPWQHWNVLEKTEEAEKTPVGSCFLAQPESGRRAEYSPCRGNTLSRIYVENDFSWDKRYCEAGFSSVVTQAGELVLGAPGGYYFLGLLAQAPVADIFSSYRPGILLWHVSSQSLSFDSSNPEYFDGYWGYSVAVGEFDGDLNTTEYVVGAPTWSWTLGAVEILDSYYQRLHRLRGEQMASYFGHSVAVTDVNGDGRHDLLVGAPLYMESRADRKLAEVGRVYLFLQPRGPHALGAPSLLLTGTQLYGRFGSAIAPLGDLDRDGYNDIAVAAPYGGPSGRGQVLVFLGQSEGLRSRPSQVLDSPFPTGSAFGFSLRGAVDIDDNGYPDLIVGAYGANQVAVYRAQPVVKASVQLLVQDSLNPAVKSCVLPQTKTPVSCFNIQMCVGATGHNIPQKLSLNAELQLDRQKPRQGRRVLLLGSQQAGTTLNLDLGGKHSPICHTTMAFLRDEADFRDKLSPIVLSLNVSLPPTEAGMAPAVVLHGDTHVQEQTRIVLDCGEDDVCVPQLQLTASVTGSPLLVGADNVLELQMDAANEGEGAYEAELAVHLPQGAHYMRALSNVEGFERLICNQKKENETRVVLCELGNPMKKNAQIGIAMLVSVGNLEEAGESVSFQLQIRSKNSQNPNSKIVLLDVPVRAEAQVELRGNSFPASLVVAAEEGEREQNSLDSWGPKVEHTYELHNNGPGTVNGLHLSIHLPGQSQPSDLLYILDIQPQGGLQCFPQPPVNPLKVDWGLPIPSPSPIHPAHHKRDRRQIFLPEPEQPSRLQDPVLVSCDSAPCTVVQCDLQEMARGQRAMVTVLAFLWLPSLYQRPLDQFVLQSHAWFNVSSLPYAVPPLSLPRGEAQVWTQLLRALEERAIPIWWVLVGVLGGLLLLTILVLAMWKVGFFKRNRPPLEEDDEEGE
T1 sequence (P05106 27-788): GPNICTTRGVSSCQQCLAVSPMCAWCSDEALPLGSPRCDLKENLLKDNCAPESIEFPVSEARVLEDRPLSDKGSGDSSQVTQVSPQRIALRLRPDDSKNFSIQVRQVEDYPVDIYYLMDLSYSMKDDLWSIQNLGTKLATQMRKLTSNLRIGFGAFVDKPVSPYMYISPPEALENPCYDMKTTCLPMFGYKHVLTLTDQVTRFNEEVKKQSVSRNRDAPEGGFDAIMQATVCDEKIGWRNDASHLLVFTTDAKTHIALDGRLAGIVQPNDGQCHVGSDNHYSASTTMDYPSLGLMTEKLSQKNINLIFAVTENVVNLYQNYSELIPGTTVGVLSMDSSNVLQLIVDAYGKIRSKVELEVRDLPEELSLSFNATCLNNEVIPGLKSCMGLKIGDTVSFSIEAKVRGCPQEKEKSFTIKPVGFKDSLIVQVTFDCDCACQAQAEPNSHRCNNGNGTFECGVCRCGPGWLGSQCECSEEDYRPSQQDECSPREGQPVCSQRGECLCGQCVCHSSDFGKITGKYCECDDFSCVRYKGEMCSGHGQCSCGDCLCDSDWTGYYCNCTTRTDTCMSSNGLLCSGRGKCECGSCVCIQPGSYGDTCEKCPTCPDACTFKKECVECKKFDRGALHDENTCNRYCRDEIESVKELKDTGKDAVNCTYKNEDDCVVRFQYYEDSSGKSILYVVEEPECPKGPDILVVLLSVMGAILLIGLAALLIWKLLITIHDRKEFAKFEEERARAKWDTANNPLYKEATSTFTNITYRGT
Method: In an independent study, a slightly modified aggregation assay was used. Platelet aggregation assays were performed in human platelet rich plasma (PRP). […] The blood was centrifuged at 160×g for 10 minutes at 22° C. and allowed to stand for 5 minutes after which the PRP was decanted. Platelet poor plasma (PPP) was isolated from the remaining blood after centrifugation at 2000×g for 25 minutes. The platelet count of the PRP was diluted to about 300,000 platelets per microliter with PPP.
A 225 μl aliquot of PRP plus 25 μl of either a dilution of the test inhibitor sample or a control (PBS) was incubated for 5 minutes in a Chrono-log Whole Blood Aggregometer at 37° C.

platelets [3] = target: T1, platelets; type: cell-based; conditions: ADP 10 μm; citrated PRP; read-out: ADP-Stimulated Aggregation (IC50)
Method: Briefly, the change in light transmission was measured through a stirred suspension of platelets in an aggregometer (Model 400 VS, Chrono-Log, Havertown, Pa., USA). […] In studies using thrombin, the PRP was gel-filtered on Sepharose 2B in divalent ion-free Tyrode's solution containing 2% BSA. For all studies, the reference standard was platelet-poor plasma, which was obtained by centrifuging PRP at 1000×g for 5 min.
All aggregation studies were performed at 37° C. with a constantly stirred suspension of 3×10^8 platelets/ml. (Platelet count was determined with the aid of a hemacytometer.) Peptides and stimulants were added to these suspensions in 1% dilutions. The PRP and gel-filtered platelets were used within three hours from the time of blood collection.
Peptide anti-aggregation potencies were determined from dose-responsive curves for the inhibition of the maximum aggregation responses stimulated by physiologic doses of ADP (10 μm) and thrombin (2 U/ml).

coronary thrombosis = assay: Electrically induced canine coronary thrombosis (time to full occlusion); type: in vivo, dog
Method: Male mongrel dogs weighing 14 to 20 kg were selected based on proper aggregation of their platelets in response to arachidonic acid, collagen, and adenosine disphosphate (ADP) and based on similar weights and hemodynamic properties.
Before surgery, the animals were anesthetized with sodium pentobarbital (30 mg/kg, i.v.) and then intubated and ventilated on room air with positive pressure using a respirator (Harvard Apparatus, S. Natick, Mass.) at a volume of 30 ml/kg and a frequency of 12 breaths/min. Surgery, performed under aseptic conditions, was begun with the placement of cannulae into the left carotid artery and jugular vein for monitoring arterial blood pressure (Statham P23 pressure transducer, Gould, Inc., Cardiovascular Products, Oxnard, Calif.) and administering intravenous fluids.
The heart was exposed via a left thoracotomy through the 5th intercostal space. A 2-cm segment of the left circumflex coronary artery (LCCA) was isolated from surrounding tissue by blunt dissection. […] The intra-coronary electrode was constructed by attaching a 25-gauge hypodermic needle tip to a 30-gauge Teflon-insulated silver-coated copper wire. The mechanical occluder was constructed of stainless steel in a C shape with a Teflon screw (2 mm diameter) on top. It was adjusted to control vessel circumference and decrease the reactive hyperemic flow due to a 10-sec (full) occlusion by 50-70% without affecting basal coronary blood flow (FIG. 1). A monopolar epicardial electrode was sutured to the surface of the ventricle in the region of LCCA distribution to monitor ischemic changes in the electrocardiogram (ECG). The left atrium was cannulated with polythylene tubing for administration of the peptide. Continuous recordings of blood pressure, limb lead II ECG, epicardial electrogram, and mean and phasic LCCA blood flow were obtained on a Model 7 polygraph (Grass Instrument Co., Quincy, Mass.).
One hour after the completion of surgery, a 100 micro-amp continuous anodal direct current delivered from a 9 volt nickel-cadmium battery was applied to the intimal surface of the LCCA. The anode of the battery was in series with a 250,000 ohm potentiometer and the intraluminal coronary artery electrode. The electric circuit was completed by placing the cathode in a subcutaneous site. Electrical stimulation was applied for three hours. At the conclusion of each experiment, the heart was fibrillated electrically and quickly removed, and the LCCA was dissected free as far as possible to verify the position of the implanted anodal electrode.
as §1
Coronary thrombosis was quantified as the time to full occlusion. The effects of the various peptide treatments on coronary thrombosis is illustrated in FIG. 4.

Substance: R(Pen)GHRGDWRCR [4Q]
- ex vivo platelet activation by collagen (platelets [1]; 5 mg/kg injection): near-maximal inhibition
- ex vivo platelet response to ADP and AA (platelets [1]; 5 mg/kg injection, all three time points): completely unresponsive
- ex vivo platelet aggregation by ADP, AA and collagen (platelets [1]; 10 mg/kg injection): prevented platelet aggregation by all three stimuli at one- and three-hour time points
- IC50 (platelets [2]): 3.3 µM
- IC50 (platelets [3]): 1.3 µM
- coronary thrombosis: time to full occlusion (coronary thrombosis; 5 mg/kg): significantly prolonged the time to occlusion
- thrombus formation in animals with platelet levels one-third of normal (coronary thrombosis; 5 mg/kg): able to prevent thrombus formation
- coronary thrombosis: time to full occlusion (coronary thrombosis; 10 mg/kg): completely prevented occlusion
